Consider four substances from patent US20060240032A1, “Immunomodulating compositions and methods for use in the treatment of human autoimmune diseases” (priority 2005, published 2006).

Where two headings read alike, the source gives them in different places. No end group written: not given here.

Series [1] has as its system EAE in Lewis rats. Nature of the series: EAE in Lewis rats injected with gpMBP in CFA, treatment with saline solution of octamer or monomer. It is filed as in vivo. The following applies: 4 and 8 days after gpMBP-CFA. From the text:
Experimental autoimmune encephalomyelitis (EAE) in the rat is an acute paralytic disease from which most animals spontaneously recover. The disease can be induced in susceptible inbred Lewis and DA rats with myelin basic protein (MBP), or encephalitogenic MBP peptides administered in complete Freund's adjuvant (CFA). The disease can be adoptively transferred to syngeneic recipients with primed T cells that have been reactivated in vitro with antigen. Studies of EAE in susceptible rats have provided many important insights into the interactions of T cells and accessory cells that culminate in the induction of the autoimmune response.
The influence of a saline solution of the 72-85gpMBP octamer on the course of EAE in Lewis rats previously injected with gpMBP emulsified in CFA was investigated. We injected 10 or 50 micrograms of the 72-85 gpMBP octamer into Lewis rats 4 and 8 days after they had been injected with gpMBP-CFA. […] Rats that received an equivalent amount of the 72-85 amino acid gpMBP peptide monomer at day 4 and day 8 developed clinical signs of disease.

Series [2] concerns EAE in SJL mice. Nature of the series: EAE in SJL mice immunized with PLP(139-151) in CFA (139CFA), treatment after immunization before disease. It counts as in vivo. Conditions: for development of clinical signs of EAE: intraperitoneal or subcutaneous, days 2, 7 and 10 after 139CFA. An excerpt:
For all of these studies, MAP octamers of the 139-151aa peptide of proteolipid protein (PLP) were used and prepared by solid phase peptide synthesis as described above in the Materials and Methods. Each PLP(139-151) MAP octamer is comprised of eight polypeptide chains of the 139-151 aa of PLP each covalently linked to a central core as shown in FIG. 1. The general structure of the MAP (FIG. 1) is therefore dissimilar to the linear array typical of the peptide multimers used by others in the prior art (Falk, Rotzschke et al. 2000; Falk, Rotzschke et al. 2000; Stienekemeier, Falk et al. 2001). MAPs are also referred to as dendrimers to emphasize the branched nature of their structure (Bracci, Falciani et al. 2003). Initial studies with the 139-151 PLP MAP octamers (139MAP) used SJL mice that were first immunized with the encephalitogenic 139-151 PLP peptide in CFA (139CFA) and subsequently injected with saline solutions of 139MAP. […] For this initial study, mice were treated by intraperitoneal or subcutaneous injection with 139MAP on days 2, 7 and 10 following 139CFA injection.

Series [3] concerns PLP(178-191) induced rEAE in SJL mice. The series can be described thus: EAE in SJL mice immunized with PLP(178-191) in CFA (antigen specificity). Conditions: for disease development: SJL mice immunized with PLP(178-191) in CFA, treated days 2, 7 and 10 (FIG. 5). It is filed as in vivo. An excerpt: The relapsing disease that develops in SJL mice is thought to occur due to the immune response that develops against additional encephalitogenic determinants found in PLP and MBP (Cross, Tuohy et al. 1993). […] Immunization of SJL mice with the PLP(178-191) peptide in CFA caused the development of clinically apparent disease 12-14 days following immunization. […] FIG. 6 represents a second experiment (4 animals per group) in which mice treated with 139MAP after they developed initial signs of EAE due to immunization with the PLP(178-191) peptide.

In series [4] the test system is adoptively transferred EAE in SJL mice. The series can be described thus: EAE induced by adoptive transfer of PLP(139-151) specific T-cell lines into naive SJL mice. It counts as in vivo. Conditions: for additional (relapsing) episodes of EAE: adoptive transfer recipients, treatment initiated after clinical signs of EAE. From the text:
The T-cell lines employed for these studies were derived from SJL mice previously immunized with 139CFA. The T-cell lines are used for adoptive transfer studies following the third round of antigen-stimulation in vitro. The source of antigen presenting cells is irradiated syngeneic thymus cells. This is a procedure that is routinely used by other investigators and is known by those of skill in the art (Bourdette, Vandenbark et al. 1989).
We treated some of the cell recipients with 50 micrograms 139MAP on three consecutive days with treatment initiated after the development of clinical signs of EAE. […] This is very clear in vivo data showing the 139MAP-associated inhibition of rEAE in the SJL mouse model. The 139MAP reagent inhibits the progression of clinically apparent disease as well as the onset and the continued development of EAE in both the actively-induced as well as the adoptively-transferred forms of EAE.

The test system of series [5] is PLP(139-151) peptide specific T-cell lines. The series can be described thus: Proliferation of encephalitogenic T-cell line in response to antigen in vitro. It is filed as cell-based. Conditions: T-cell line from 139CFA-immunized SJL mice.
The subject of series [6] is antigen specific lymphocytes. The series can be described thus: Additional studies on lymphoid traffic after 139MAP treatment. It is filed as in vivo.
Series [7] concerns relapsing EAE (rEAE) in SJL mice. Conditions: for relapses (rEAE): 100 microgram doses on two consecutive days after clinical disease evident.
Protocol: Animals are graded as grade 1 when the first sign of disease is evident which is a flaccid tail.
The 139MAP-treated animals were given 100 microgram doses of 139MAP on two consecutive days. […] All reagents were administered on two consecutive days after clinical disease was evident.
Series [8] deals with diabetes in NOD mice. Conditions: cited from earlier work.

For the substance “72-85 amino acid gpMBP peptide monomer: monomer of the 72-85 amino acid peptide of guinea pig myelin basic protein (LPQKSQRSQDENPV; UniProt P25188 72-85, looked up, fragment) [reference compound]”, the “clinical signs of EAE” value was “No diminution of the signs of clinical disease” in series [1] (10 micrograms) and “modest diminution of the clinical signs of EAE” in series [1] (50 micrograms).

For “139MAP: chemically synthesized octamer of PLP 139-151 peptide (HSLGKWLGHPDKF, SEQ ID NO:8), each linked through KKKKKGG spacer to a lysine-branched core (also: octamer, each linked via KKKKKGG spacer to lysine-branched core (MAP))”, the “development of clinical signs of EAE” value is reported as “Virtually all signs of disease were prevented” in series [2] (SJL mice, 20 micrograms) and “Virtually all signs of disease were prevented” in series [2] (SJL mice, 100 micrograms). The “diminution of EAE” value in series [2] (SJL mice, three injections of 5 micrograms after 139CFA (FIG. 3)) is “considerable diminution of EAE”. Further, the results for the disease development result in series [3] and in series [3] (listed as MAP139 octamer) were “no significant inhibition of disease development” and “does not inhibit the development of PLP(178-191) induced rEAE”, respectively. Also, the development of relapses result in series [3] (SJL mice immunized with PLP(178-191), treated after initial signs of EAE) was “inhibits the development of relapses”. Moreover, the “continued development of the first episode of disease” value in series [4] (50 micrograms on three consecutive days, initiated after clinical signs of EAE) is “inhibited the continued development of the first episode of disease”. Moreover, in series [4] (administered prior to onset of disease or at first indication of disease (tail flaccidity), data not shown), the “development of adoptively transferred EAE and subsequent relapses” value is listed as “completely inhibited”. The “additional (relapsing) episodes of EAE” value in series [4] is recorded as “no or very modest signs of additional episodes of EAE”; in series [4] (listed as MAP139 octamer), “inhibits the development of rEAE”. Also, the “T-cell line proliferation in response to antigen” value in series [5] was “proliferated in response”. Moreover, the “lymphoid traffic to the autoimmune target organ” value in series [6] is listed as “alters lymphoid traffic to the autoimmune target organ”. The entries for the “relapses (rEAE)” value in series [7] and in series [7] (listed as MAP139 octamer) were “inhibited the relapse component of this disease” and “effectively inhibits rEAE”, respectively. Moreover, in series [7] (100 microgram doses on two consecutive days after clinical disease evident (grades 1-3)), the “subsequent course of disease” value is “profound and immediate influence on the subsequent course of disease”.

Consider “B(9-23): peptide of residues 9-23 of the insulin B chain (SEQ ID NO:2) (SHLVEALYLVCGERG)”, for which the anaphylaxis result in series [8] (peptide therapy) is reported as “development of anaphylaxis”. The “onset and incidence of diabetes” value in series [8] (subcutaneous or intranasal administration) is “marked delay in the onset and a decrease in the incidence of diabetes”.

Take “72-85 gpMBP octamer: chemically synthesized octamers of the 72-85 amino acid peptide of guinea pig myelin basic protein (SEQ ID NO:7) (LPQKSQRSQDENPV; also: octamer on lysine-branched core)”: the “clinical signs of EAE” value was “developed less severe disease compared to the control group” in series [1] (10 micrograms) and “did not develop any signs of clinical disease” in series [1] (50 micrograms). Besides, the “development of EAE disease” value in series [2] (SJL mice immunized with 139CFA, control octamer, dose not stated (FIG. 3)) is “had no effect of the development of EAE disease”. Also, the “additional (relapsing) episodes of EAE” value in series [4] is “developed a relapsing episode of clinically severe EAE”.
